Literature values as cited in patent US20100209419A1, “Method and formulation for treating adverse biological conditions” (priority 2008, published 2010).

Conditions: at 79° F.

CS(C)(=O)=O [MSM, methylsulfonylmethane]
water solubility: 34 % w/v
